Results as given in article PMC3254090 (ACS chemical neuroscience, 2011).
Like-named read-outs stand apart in the source and are kept apart here.

How the values were obtained:
[1] = system: histamine subtype 3 (H3) receptor; settings: cited from earlier work
[2] = cited from earlier work
[3] = standard cytotoxicity assay
[4] = system: 68 GPCRs, ion channels and transporters; test: external panel of radioligand binding assays
[5] = molecular target: SERT (Homo sapiens, UniProt P31645); test: SERT activity in receptor profiling; type: binding
Chain of SERT (P31645 whole entry, species assumed): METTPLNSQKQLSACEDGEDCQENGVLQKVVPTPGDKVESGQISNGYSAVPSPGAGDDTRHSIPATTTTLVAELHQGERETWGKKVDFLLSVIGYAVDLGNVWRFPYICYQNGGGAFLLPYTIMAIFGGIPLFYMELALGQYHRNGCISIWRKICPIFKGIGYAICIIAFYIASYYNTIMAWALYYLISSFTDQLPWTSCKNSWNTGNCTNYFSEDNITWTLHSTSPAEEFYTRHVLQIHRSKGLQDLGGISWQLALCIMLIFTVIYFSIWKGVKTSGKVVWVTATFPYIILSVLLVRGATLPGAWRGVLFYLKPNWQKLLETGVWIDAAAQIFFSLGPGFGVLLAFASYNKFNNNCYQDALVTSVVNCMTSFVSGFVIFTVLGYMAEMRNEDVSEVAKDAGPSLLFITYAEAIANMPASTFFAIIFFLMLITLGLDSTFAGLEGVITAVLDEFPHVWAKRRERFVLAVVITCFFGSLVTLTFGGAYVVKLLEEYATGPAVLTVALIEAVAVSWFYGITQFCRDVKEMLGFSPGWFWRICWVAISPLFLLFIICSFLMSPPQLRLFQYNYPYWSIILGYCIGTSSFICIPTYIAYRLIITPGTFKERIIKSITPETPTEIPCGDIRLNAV

[6] = molecular target: T1, norepinephrine transporter, NET (Homo sapiens, UniProt P23975); test: radioligand binding assay, NET
T1 sequence (P23975 whole entry): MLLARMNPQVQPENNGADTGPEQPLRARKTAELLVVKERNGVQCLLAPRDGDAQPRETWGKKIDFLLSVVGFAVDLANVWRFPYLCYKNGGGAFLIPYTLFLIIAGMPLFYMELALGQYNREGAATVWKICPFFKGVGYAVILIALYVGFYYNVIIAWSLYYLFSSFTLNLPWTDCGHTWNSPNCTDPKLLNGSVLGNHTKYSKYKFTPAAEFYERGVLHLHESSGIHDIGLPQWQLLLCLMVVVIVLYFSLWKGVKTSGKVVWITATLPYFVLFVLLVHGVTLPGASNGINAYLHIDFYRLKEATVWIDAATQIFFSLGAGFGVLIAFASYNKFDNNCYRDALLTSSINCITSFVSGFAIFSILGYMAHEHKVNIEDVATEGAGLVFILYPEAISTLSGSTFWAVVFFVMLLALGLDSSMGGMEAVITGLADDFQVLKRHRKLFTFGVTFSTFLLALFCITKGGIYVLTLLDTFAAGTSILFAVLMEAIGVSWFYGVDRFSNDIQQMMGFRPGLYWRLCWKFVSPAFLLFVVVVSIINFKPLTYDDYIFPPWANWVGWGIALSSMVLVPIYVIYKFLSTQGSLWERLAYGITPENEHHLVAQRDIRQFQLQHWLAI

[7] = molecular target: T2, histamine H3 (Homo sapiens, UniProt Q9Y5N1); test: radioligand binding assay, H3
T2 sequence (Q9Y5N1 whole entry): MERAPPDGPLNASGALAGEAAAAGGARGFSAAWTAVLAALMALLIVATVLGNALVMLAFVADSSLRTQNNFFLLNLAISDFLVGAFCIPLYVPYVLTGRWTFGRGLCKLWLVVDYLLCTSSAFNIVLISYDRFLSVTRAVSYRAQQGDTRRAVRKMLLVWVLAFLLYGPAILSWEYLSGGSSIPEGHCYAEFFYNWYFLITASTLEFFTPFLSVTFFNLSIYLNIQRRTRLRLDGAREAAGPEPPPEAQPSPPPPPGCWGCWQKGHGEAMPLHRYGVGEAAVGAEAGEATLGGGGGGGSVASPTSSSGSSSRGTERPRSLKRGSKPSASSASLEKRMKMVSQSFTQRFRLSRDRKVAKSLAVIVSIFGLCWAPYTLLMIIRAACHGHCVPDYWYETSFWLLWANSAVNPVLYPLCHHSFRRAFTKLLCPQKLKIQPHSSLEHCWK

[8] = molecular target: T2, histamine H3; test: functional assay, H3; type: biochemical
[9] = molecular target: T1, norepinephrine transporter, NET; test: functional assay, NET; type: biochemical
[10] = system: HCT116 cells; test: HCT116 colon carcinoma cell viability assay; type: cell-based; settings: for effect on HCT116 cell viability: after 48 hours
[11] = molecular target: T3, Dopamine Transporter, DAT (Homo sapiens, UniProt Q01959); test: radioligand binding assay, DAT
T3 sequence (Q01959 whole entry): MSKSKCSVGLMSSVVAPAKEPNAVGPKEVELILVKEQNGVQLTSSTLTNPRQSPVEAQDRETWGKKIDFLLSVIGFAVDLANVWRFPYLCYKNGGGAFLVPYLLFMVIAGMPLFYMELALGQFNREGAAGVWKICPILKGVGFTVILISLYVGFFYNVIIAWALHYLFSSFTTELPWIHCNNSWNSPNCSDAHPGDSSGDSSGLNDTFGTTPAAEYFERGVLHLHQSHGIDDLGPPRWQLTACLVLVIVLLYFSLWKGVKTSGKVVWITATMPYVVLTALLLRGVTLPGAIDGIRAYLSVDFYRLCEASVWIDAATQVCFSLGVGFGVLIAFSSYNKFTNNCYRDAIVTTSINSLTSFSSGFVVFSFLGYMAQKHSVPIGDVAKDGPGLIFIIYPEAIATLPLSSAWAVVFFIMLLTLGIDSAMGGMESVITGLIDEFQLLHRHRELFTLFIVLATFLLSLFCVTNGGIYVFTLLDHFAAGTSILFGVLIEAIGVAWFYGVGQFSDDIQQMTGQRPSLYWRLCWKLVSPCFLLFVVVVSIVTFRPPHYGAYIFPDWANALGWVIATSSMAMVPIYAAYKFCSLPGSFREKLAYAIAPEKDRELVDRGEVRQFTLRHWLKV

[12] = molecular target: T3, Dopamine Transporter, DAT; test: functional assay, DAT; type: biochemical
[13] = cited from earlier work; remark: listed apart in the source
[14] = system: SW620 cells; test: BrdU proliferation assay, SW620; type: cell-based; settings: 10 μM, 48 hours
[15] = system: H520 cells; test: BrdU proliferation assay, H520; type: cell-based; settings: 10 μM, 48 hours
[16] = system: SW620 cells; test: cell viability, SW620; type: cell-based
[17] = system: H520 cells; test: cell viability, H520; type: cell-based

SMILES: CN(C)CCCOc1c(Br)cc(CCN(C)C)cc1Br [compound 1, aplysamine]
- affinity for and inhibition of H3 receptor [1]: displayed both affinity for, and inhibition of

SMILES: COc1ccc(C/C(=N\O)C(=O)NCCc2c[nH]cn2)cc1Br [compound 2, verogamine]
- affinity for and inhibition of H3 receptor [1]: displayed both affinity for, and inhibition of

SMILES: C[C@H]1[C@H]2CC[C@H]3[C@@H]4CC=C5C[C@@H](N(C)C)CC[C@]5(C)[C@H]4CC[C@]23CN1C [compound 3, conessine]
- affinity for and inhibition of H3 receptor [1]: displayed both affinity for, and inhibition of

SMILES: CN(C)CCCOc1ccc(CCNC(=O)c2cc(Br)c[nH]2)cc1Br [compound 4, dispyrin]
- affinity for and inhibition of H3 receptor [1]: displayed both affinity for, and inhibition of

SMILES: N=C(N)NCCCC1NCCc2c1[nH]c1ccccc21 (stereo not drawn) [compound 5, trypargine]
- toxicity [2]: highly toxic

SMILES: N=C(N)NCCC[C@H]1NCCc2c1[nH]c1cc(Br)ccc21 [compound 7, (+)-7-Bromotrypargine]
- cytotoxicity: non-toxic up to [3]: > 20 µM
- pharmacological profile in panel of 68 targets [4]: significant percent inhibition at only three targets
- SERT activity [5]: devoid of SERT activity
- SERT activity ([5]; listed as (+)-7-bromotrypargine): without inhibiting SERT
- % Inhibition (@10 μM) ([6]; 10 μM, radioligand binding): 82%
- Ki ([6]; binding): 1900 nM
- % Inhibition (@10 μM) ([7]; 10 μM, radioligand binding): 74%
- Ki ([7]; binding): 1800 nM
- IC50 [8]: 3.6 µM
- IC50 [9]: 1900 nM
- effect on HCT116 cell viability [10]: no affect on HCT116 cell viability
- % Inhibition (@10 μM) ([11]; 10 μM, radioligand binding): 81%
- Ki ([11]; binding): 3000 nM
- IC50 [12]: 3.8 µM
- antimalarial activity [13]: found to possess antimalarial activity

SMILES: NCCC[C@H]1NCCc2c1[nH]c1cc(Br)ccc21 [compound 21, (R)-3-(7-bromo-2,3,4,9-tetrahydro-1H-pyrido[3,4-b]indol-1-yl)propan-1-amine]
- inhibition of proliferation (BrdU) [14]: dramatic affects inhibiting proliferation
- inhibition of proliferation (BrdU) [15]: dramatic affects inhibiting proliferation
- activity on cell viability [16]: significant activity on cell viability
- IC50 ([10]; Homo sapiens, HCT-116, 48 h): 3000 nM
- effect on HCT116 cell viability [10]: completely killing the cells
- cytotoxicity in multiple cell lines ([10]; multiple non-transformed and colon cancer cell lines): extremely cytotoxic
- activity on cell viability [17]: significant activity on cell viability
